The target in experiment [1] is T1, EV71-2A^pro (Human enterovirus 71, UniProt Q66478).
T1 sequence (Q66478 863-1012 limits assumed): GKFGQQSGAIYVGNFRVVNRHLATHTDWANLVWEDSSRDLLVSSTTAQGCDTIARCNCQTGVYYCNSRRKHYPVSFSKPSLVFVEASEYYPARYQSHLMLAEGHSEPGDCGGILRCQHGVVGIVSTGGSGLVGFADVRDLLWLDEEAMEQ
Kind of experiment: Kinetic activity assay. To be noted: from Km values, relative to native substrate (Km 21.3 μM). Type of experiment: biochemical.

Experiment [2] has as its target T1, EV71-2A^pro. Kind of experiment: EV71-2Apro inhibition assay. Type of experiment: biochemical.

We go through two molecules from PMC10125330 (ACS Bio & Med Chem Au, 2022).

Where a SMILES comes first, the peptide text is derived from it.

Consider “Dabcyl-RDKIGFRGKFGQDE-Edans-NH2 [Pseudosubstrate II]”, for which the “higher affinity for EV71-2A^pro than the native substrate” value at EV71-2A^pro [1] is on record as 3 fold.
For orientation: IC50 means the concentration at which inhibition is half-maximal. `CC[C@H](C)[C@H](NC(=O)[C@H](CCCCN)NC(=O)[C@H](CC(=O)O)NC(=O)[C@@H](N)CCCNC(=N)N)C(=O)NCC(=O)N[C@@H](Cc1ccccc1)C(=O)N[C@@H](CCCNC(=N)N)C(=O)NCC(=O)N[C@@H](CCCCN)C(=O)N[C@@H](Cc1ccccc1)C(=O)NCC(=O)N[C@@H](CCC(N)=O)C(=O)O` [Peptide II] (H-RDKIGFRGKFGQ-OH): the IC50 against EV71-2A^pro [2] was 12.1 ± 1.2 µM.
